# Measured values as given in patent US12622918B2, “Formulations and dosages for administering a compound that inhibits MCL1 protein” (Amgen Inc., priority 2019, dated 2026).
# Key:
# [1] = Pharmacokinetics in monkeys; conditions: male, monkey, in vivo, read-out: mean terminal elimination half-life (t1/2,z) (converted)
# Text: The pharmacokinetics (PK) of the compound of Formula I after single intravenous (IV) or oral administration were characterized in male CD1 mice, female athymic nude mice, male Nu/Nu mice, male Sprague Dawley rats, male beagle dogs, and male cynomolgus monkeys. The clearance (CL) of the compound was low in mice, rats, dogs, and monkeys relative to their hepatic blood flow. Volume of distribution at steady state (Vss) in mice, rats, dogs, and monkeys was variable across the species.
# [2] = molecular target: Mouse MCL1 (Mus musculus, UniProt P97287); experiment: Cell-free TR-FRET BIM-binding assay, Mouse MCL1; conditions: BIM-binding partner Mouse MCL1; n = 3
# Mouse MCL1, sequence (P97287 whole entry): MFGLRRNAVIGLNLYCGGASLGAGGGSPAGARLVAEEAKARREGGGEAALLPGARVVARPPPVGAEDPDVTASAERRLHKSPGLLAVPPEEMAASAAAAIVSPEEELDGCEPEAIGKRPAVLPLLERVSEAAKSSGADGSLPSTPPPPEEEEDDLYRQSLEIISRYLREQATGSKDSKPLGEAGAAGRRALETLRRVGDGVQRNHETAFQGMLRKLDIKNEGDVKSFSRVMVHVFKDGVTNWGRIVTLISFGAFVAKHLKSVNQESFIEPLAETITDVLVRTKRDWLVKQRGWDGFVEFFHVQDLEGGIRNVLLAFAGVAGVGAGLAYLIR
# [3] = test system: subjects with relapsed/refractory acute myelogenous leukemia; experiment: Phase 1 FIH study, acute myeloid leukemia part 3; type: in vivo, human
# Protocol: In part 3, 10 total subjects were enrolled across 2 cohorts, with doses of 60 mg/m^2 or 120 mg/m^2.
# [4] = test system: MM1S; experiment: Cell viability (CellTiterGlo), MM1S; type: cell-based; conditions: Homo sapiens, MM1.S, Multiple myeloma, 24 hours, 10% FBS, read-out: AMS 176 IC50
# [5] = test system: SU-OHL-6; experiment: Cell viability (CellTiterGlo), SU-OHL-6; type: cell-based; conditions: SU-OHL-6, NHL; 24 hours; 10% FBS; read-out: AMS 176 IC50
# [6] = test system: dogs; experiment: 28-day GLP IV toxicology study in dogs; type: in vivo; conditions: dog
# Text: The doses selected for the 28-day IV rat and dog toxicology studies were intended to characterize the toxicity of the compound of Formula I and provide data to support a starting dose in the first-in-human (FIH) study. An IV route of administration and a dosing schedule of 2 days on/5 days off was used to support the anticipated clinical route and dosing schedule.
# [7] = test system: Toledo; experiment: Cell viability (CellTiterGlo), Toledo; type: cell-based; conditions: Homo sapiens, NHL, 24 hours, 10% FBS, read-out: AMS 176 IC50
# [8] = test system: Adult patients with relapsed or refractory AML; experiment: Dose-escalation study in relapsed or refractory AML, data cutoff May 17, 2019; type: in vivo
# Protocol: Escalating doses started at 60 mg/m^2. For dose levels ≥180 mg/m^2, a lead-in dose of 120 mg/m^2 was implemented during week 1. Primary objectives included the evaluation of safety, tolerability, and pharmacokinetics. The secondary objective was a preliminary evaluation of efficacy, assessed using ELN criteria. Exploratory endpoints included pharmacodynamic evaluation of MCL-1 inhibition in circulating AML blasts.
# [9] = test system: Raji; experiment: Cell viability (CellTiterGlo), Raji; type: cell-based; conditions: Homo sapiens, NHL, 24 hours, 10% FBS, read-out: AMS 176 IC50
# [10] = test system: caspase 3; experiment: Caspase 3 cleavage in OPM2-Luc tumor xenografts (PD); type: in vivo, mice; conditions: for induction of caspase 3 cleavage: 4-, vs vehicle p<0.05
# Protocol: Activation of the pro-apoptotic pore-forming protein BAK and proteolytic cleavage of the cysteine-aspartic acid protease caspase 3 (hallmarks of the induction of apoptosis) in MCL1-dependent OPM2-Luc multiple myeloma tumor cells served as a PD assay. Female athymic nude mice were injected with 5×10^6 cells in 0.1 mL subcutaneously (SC). […] Mice were euthanized 2, 4, 8, 12, and 24 hours postdose (n=3/group), terminal plasma samples were collected for PK analysis, and tumors were halved and snap frozen in liquid nitrogen for PK and molecular analyses. Tumor lysates were prepared for evaluation of BAK activation and caspase 3 cleavage using an electrochemiluminescence immunoassay. Tumors treated with vehicle (25% HPβCD, pH 8) served as a negative control and indicated the baseline level of apoptosis.
# [11] = test system: subjects with relapsed/refractory multiple myeloma; experiment: Phase 1 FIH study, multiple myeloma part 1a (QD2); type: in vivo, human
# Protocol: In part 1a, subjects were enrolled across 8 cohorts, with doses ranging from 30 to 240 mg/m^2 QD2. In part 1b, subjects were enrolled across 2 cohorts, with doses of 120/180-mg/m^2 or 120/240-mg/m^2.
# [12] = test system: HL-60; experiment: Cell viability (CellTiterGlo), HL-60; type: cell-based; conditions: Homo sapiens; HL-60, AML; 24 hours; 10% FBS; read-out: AMS 176 IC50
# [13] = test system: KMS34; experiment: Cell viability (CellTiterGlo), KMS34; type: cell-based; conditions: KMS-34; KMS34, Multiple myeloma; 24 hours; 10% FBS; read-out: AMS 176 IC50
# [14] = TEAEs occurring in ≥2 patients, N = 11
compound,measurement,setting,value
CO[C@H]1/C=C/C[C@H](C)[C@@H](C)S(=O)(=O)NC(=O)c2ccc3c(c2)N(C[C@@H]2CC[C@H]21)C[C@@]1(CCCc2cc(Cl)ccc21)CO3 [AMG 176],half-life,[1],1.66 h
same,IC50,[2],0.0498 µM
same,"Grade 3 adverse events, subjects",[3]; AML part 3,70%
same,"Serious adverse events, subjects",[3]; AML part 3,60%
same,"adverse events considered related to AMG 176, subjects",[3]; AML part 3,40%
same,"adverse events leading to discontinuation of investigational product, subjects",[3]; AML part 3,20%
same,fatal adverse events,[3]; AML part 3,No fatal adverse events occurred
same,febrile neutropenia leading to discontinuation,[3]; AML part 3,10%
same,"grade 4 adverse events, subjects",[3]; AML part 3,20%
same,related increased blood bilirubin,[3]; AML part 3,20%
same,related nausea,[3]; AML part 3,20%
same,superior vena cava syndrome leading to discontinuation,[3]; AML part 3,10%
same,"adverse events, subjects","[3]; AML part 3, 10 subjects",80%
same,"anemia, subjects","[3]; AML part 3, any grade",20%
same,"hypokalemia, subjects","[3]; AML part 3, any grade",30%
same,"hypomagnesemia, subjects","[3]; AML part 3, any grade",20%
same,"increased blood bilirubin, subjects","[3]; AML part 3, any grade",20%
same,"nausea, subjects","[3]; AML part 3, any grade",30%
same,"peripheral edema, subjects","[3]; AML part 3, any grade",30%
same,"pyrexia, subjects","[3]; AML part 3, any grade",20%
same,"vomiting, subjects","[3]; AML part 3, any grade",20%
same,anemia of grade 3 or higher,"[3]; AML part 3, both cohorts combined",20%
same,exposures (Cmax and AUC) versus dose,"[3]; AML, 10 subjects, 60 or 120 mg/m^2, preliminary",generally increased with increasing doses
same,IC50,[4],5.12 µM
same,IC50,[5],0.165 µM
same,finding related to morbidity and mortality,[6],mucosal epithelial degeneration in the small and large intestines
same,dose with mortality,"[6]; IV, 28-day",20 mg/kg
same,highest-nonseverely-toxic dose (HNSTD),"[6]; IV, 2 days on/5 days off, 28-day",10 mg/kg
same,IC50,[7],9.7 µM
same,plasma exposures versus dose,[8]; 60-180 mg/m^2,increased in a dose-related manner
same,"Treatment-related AEs, patients","[8]; AML, 11 patients",46%
same,fatal adverse events,"[8]; AML, 11 patients",No fatal adverse events were observed
same,"grade ≥3 TEAEs, patients","[8]; AML, 11 patients",73%
same,grade ≥3 anemia,"[8]; AML, 11 patients",18%
same,"grade ≥3 treatment-related AEs, patients","[8]; AML, 11 patients",18%
same,"nausea, any grade","[8]; AML, 11 patients",36%
same,"peripheral edema, any grade","[8]; AML, 11 patients",36%
same,"TEAEs of any grade, patients","[8]; AML, 11 patients, 60-180 mg/m^2 IV",91%
same,"Anemia, Grade ≥3","[8]; Grade ≥3 TEAEs occurring in ≥2 patients, N = 11",2 (18.2) n (%)
same,time of maximum plasma concentrations,[8]; IV infusion over a minimum of 2 hours,close to the end of intravenous infusion
same,All TEAEs,[8]; Patients (N = 11),10 (90.9) n (%)
same,TEAEs Fatal,[8]; Patients (N = 11),0 n (%)
same,TEAEs Grade ≥3,[8]; Patients (N = 11),8 (72.7) n (%)
same,TEAEs Serious,[8]; Patients (N = 11),8 (72.7) n (%)
same,Anemia,[8]; [14],2 (18.2) n (%)
same,Hypokalemia,[8]; [14],2 (18.2) n (%)
same,Hypomagnesemia,[8]; [14],2 (18.2) n (%)
same,Increased blood bilirubin level,[8]; [14],2 (18.2) n (%)
same,Nausea,[8]; [14],4 (36.4) n (%)
same,Peripheral edema,[8]; [14],4 (36.4) n (%)
same,Vomiting,[8]; [14],2 (18.2) n (%)
same,maximum tolerated dose,[8]; at the data cutoff date,not yet reached
same,"safety, tolerability, and pharmacokinetic profile","[8]; monotherapy, dose levels evaluated",acceptable
same,pharmacodynamic impact in peripheral blood AML blasts,"[8]; patient achieving CRi, 3 hours postinfusion",release of the proapoptotic protein Bax and activation of effector caspase 3
same,IC50,[9],3.55 µM
same,induction of caspase 3 cleavage,"[10]; 20 mg/kg oral gavage, 8-, and 12-hour time points",Statistically significant induction of caspase 3 cleavage
same,induction of caspase 3 cleavage,"[10]; 30 mg/kg oral gavage, 2-, 8-, and 12-hour time points",Statistically significant induction of caspase 3 cleavage
same,induction of caspase 3 cleavage,"[10]; 60 mg/kg oral gavage, 2-, 8-, 12-, and 24-hour time points",Statistically significant induction of caspase 3 cleavage
same,induction of cleaved caspase 3,"[10]; 60 mg/kg, 2 hours postdose, persisted to 12 hours",approximately 7.5 fold
same,cleaved caspase levels above control,"[10]; 60 mg/kg, 24 hours postdose",5 fold
same,"Grade 3 adverse events, subjects",[11]; MM part 1a,65%
same,"Serious adverse events, subjects",[11]; MM part 1a,31%
same,"adverse events considered related to AMG 176, subjects",[11]; MM part 1a,69%
same,adverse events leading to discontinuation of investigational product,[11]; MM part 1a,No adverse event led to discontinuation
same,anemia of grade 3 or higher,[11]; MM part 1a,15%
same,decreased neutrophil count of grade 3 or higher,[11]; MM part 1a,8%
same,decreased white blood cell count of grade 3 or higher,[11]; MM part 1a,8%
same,"grade 4 adverse events, subjects",[11]; MM part 1a,31%
same,hypertension of grade 3 or higher,[11]; MM part 1a,8%
same,neutropenia of grade 3 or higher,[11]; MM part 1a,31%
same,related diarrhea,[11]; MM part 1a,19%
same,related nausea,[11]; MM part 1a,23%
same,related neutropenia,[11]; MM part 1a,23%
same,"treatment-emergent adverse events, subjects","[11]; MM part 1a QD2, 26 subjects",96%
same,"anemia, subjects","[11]; MM part 1a, any grade",27%
same,"diarrhea, subjects","[11]; MM part 1a, any grade",31%
same,"fatigue, subjects","[11]; MM part 1a, any grade",27%
same,"nausea, subjects","[11]; MM part 1a, any grade",35%
same,"neutropenia, subjects","[11]; MM part 1a, any grade",31%
same,dose-limiting toxicity (DLT) reported,"[11]; MM part 1a, 1 subject in the 240 mg/m^2 cohort, fatal",tumor lysis syndrome
same,exposures (Cmax and AUC) versus dose,"[11]; MM part 1a, 25 subjects, preliminary",generally increased with increasing doses
same,fatal adverse events,"[11]; MM part 1a, hepatic failure (50 mg/m^2, not related), tumor lysis syndrome (240 mg/m^2, related)",Two
same,IC50,[12],0.11 µM
same,IC50,[13],6.05 µM
